Results as given in patent US7947818B2, “Heteromolecular metal-humic (chelate) complexes” (priority 2007, dated 2011).

Tests used:
nectarine trees = test: Field study: iron chlorosis and crop of nectarine trees in basic, calcareous soil; format: in vivo; conditions: dose d1 (5 g of Fe per tree)
Method: In this study, the effect of the heteromolecular humate-Fe citrate complex on nectarine trees cultivated in a basic, calcareous soil was analysed. This effect was compared to the effect of an Fe EDDHA chelate of reference. This test was performed in a field with a high chlorotic power, wherein a clear response to the standard Fe chelate (Fe EDDHA) is not observed.

[1] = test system: cucumber plants (sensitive variety, Anico); test: Pot study: foliar Fe content of cucumber plants in basic, calcareous soil; format: in vivo; conditions: Fe dose 4 ppm; after 30 days of cultivation; soil pH=8.04, % CO3=23%
Excerpt: Study of the effect of applying a heteromolecular humate-iron citrate complex in cucumber plants (sensitive variety, Anico) cultivated in a basic (pH=8.04), calcareous (% CO3=23%) soil. In this study, performed in pots, the effect of the synthesis chelate of reference in correcting iron chlorosis (Fe-EDDHA orto-orto isomer) was compared to the effect of the heteromolecular humate-Fe citrate complex prepared according to Example 1; in relation to these compounds' capacity to increase iron absorption in cucumber (v anico) plants sensitive to iron chlorosis. The results obtained after 30 days of cultivation are shown in the following figure, where the Fe-EDDHA chelate orto-orto isomer is called (o,o) and the heteromolecular complex is called (H-Cit). The Fe doses applied were: 4 ppm (o, o) and 4 and 8 ppm (H-Cit).

Compound	Commercial production increase with respect to control (nectarine trees)	Crop 21 days after treatment (nectarine trees) [kg/tree]	Green colour (1-10) 62 days post-treatment (nectarine trees; leaves' green colour)	Green colour (1-10) 85 days post-treatment (nectarine trees; leaves' green colour)	increase in foliar Fe content [1]
Fe EDDHA [FeEDDHA]	+57.9	5.8	5.3	5.9	–
O=C([O-])C(NCCNC(C(=O)[O-])c1ccccc1[O-])c1ccccc1[O-].[Fe+3] (single isomer, unassigned) [(o,o), Fe-EDDHA orto-orto isomer]	–	–	–	–	approximately 50%
